Among the data in PubChem BioAssay AID330 (DTP/NCI, 2004) are T/C values, retold here.

This assay has as its system P388 leukemia ip, CD2F1 mice, survival T/C. Kind of assay: NCI In Vivo Anticancer Drug Screen. Data for tumor model P388 Leukemia (intraperitoneal) in CD2F1 (CDF1) mice. Conditions: endpoint: median survival time, higher = longer survival. The gist of the method:
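Mice carrying the transplanted tumor received test compound or vehicle. Survival was recorded in each group, and the value is the treated-group measurement divided by that of the vehicle-treated control group.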

Where [1] appears, read: dose: 50.0 mg/kg/injection, schedule: Q01DX005 (ip), vehicle: saline.
Where [2] appears, read: dose: 100.0 mg/kg/injection, schedule: Q01DX005 (ip), vehicle: saline.
Setting [3] is: dose: 200.0 mg/kg/injection, schedule: Q01DX005 (ip), vehicle: saline.
Where [4] appears, read: dose: 50.0 mg/kg/injection, schedule: Q01DX009 (ip), vehicle: saline with Tween-80.
Setting [5] is: dose: 100.0 mg/kg/injection, schedule: Q01DX009 (ip), vehicle: saline with Tween-80.
[6] abbreviates: dose: 200.0 mg/kg/injection, schedule: Q01DX009 (ip), vehicle: saline with Tween-80.

Several values for one entry are separate records, joined by “and”; a condition that tells them apart may be missing. Equal values may be shown once. Inconclusive results and toxic doses are left out.

Regarding `CC[C@@]1(O)C[C@H](OC2CC(N(C)C)C(OC3CC(O)C(OC4CCC(=O)C(C)O4)C(C)O3)C(C)O2)c2c(cc3c(c2O)C(=O)c2c(O)cccc2C3=O)[C@H]1C(=O)OC` (stereo not given in full), the T/C runs as follows: (dose: 0.5 mg/kg/injection, schedule: Q03HX008 (ip), vehicle: saline) 120 % of control; (dose: 1.0 mg/kg/injection, schedule: Q01DX005 (iv), vehicle: saline) 108 % of control; (dose: 1.0 mg/kg/injection, schedule: Q01DX009 (oral), vehicle: saline) 98 % of control; (dose: 1.0 mg/kg/injection, schedule: Q01DX009 (sc), vehicle: saline) 115 % of control; (dose: 1.0 mg/kg/injection, schedule: Q03HX024 (ip), vehicle: saline) 167 % of control; (dose: 1.0 mg/kg/injection, schedule: Q04DX003 (ip), vehicle: saline) 103 % of control. The T/C was 96 % of control (dose: 1.94 mg/kg/injection, schedule: Q04DX003 (ip), vehicle: clinical formulation); 105 % of control (dose: 2.0 mg/kg/injection, schedule: Q01DX001 (iv), vehicle: saline); 167 % of control (dose: 2.0 mg/kg/injection, schedule: Q01DX005 (ip), vehicle: saline); 120 % of control (dose: 2.0 mg/kg/injection, schedule: Q01DX005 (iv), vehicle: saline); 168 % of control (dose: 2.0 mg/kg/injection, schedule: Q01DX009 (ip), vehicle: saline); 115 % of control (dose: 2.0 mg/kg/injection, schedule: Q01DX009 (oral), vehicle: saline). Moreover, the T/C is 117 % of control (dose: 2.0 mg/kg/injection, schedule: Q04DX003 (ip), vehicle: clinical formulation); 116 % of control and 120 % of control (dose: 2.0 mg/kg/injection, schedule: Q04DX003 (ip), vehicle: saline); 180 % of control (dose: 2.5 mg/kg/injection, schedule: Q01DX009 (ip), vehicle: saline); 114 % of control (dose: 2.59 mg/kg/injection, schedule: Q04DX002 (ip), vehicle: saline); 116 % of control (dose: 4.0 mg/kg/injection, schedule: Q01DX001 (iv), vehicle: saline); 189 % of control (dose: 4.0 mg/kg/injection, schedule: Q01DX005 (ip), vehicle: saline). Besides, the T/C runs as follows: (dose: 4.0 mg/kg/injection, schedule: Q01DX005 (iv), vehicle: saline) 162 % of control; (dose: 4.0 mg/kg/injection, schedule: Q01DX009 (ip), vehicle: saline) 99 % of control; (dose: 4.0 mg/kg/injection, schedule: Q01DX009 (sc), vehicle: saline) 153 % of control; (dose: 4.0 mg/kg/injection, schedule: Q03HX008 (ip), vehicle: saline) 173 % of control; (dose: 4.0 mg/kg/injection, schedule: Q04DX003 (ip), vehicle: Klucel (hydroxypropylcellulose) (HPC)) 122 % of control; (dose: 4.32 mg/kg/injection, schedule: Q04DX002 (ip), vehicle: saline) 151 % of control. For the same compound, the T/C (dose: 5.4 mg/kg/injection, schedule: Q04DX003 (ip), vehicle: clinical formulation) is 113 % of control; the T/C (dose: 5.4 mg/kg/injection, schedule: Q04DX003 (ip), vehicle: saline) was 159 % of control; the T/C (dose: 6.7 mg/kg/injection, schedule: Q04DX003 (ip), vehicle: water) is 154 % of control; the T/C (dose: 7.2 mg/kg/injection, schedule: Q04DX002 (ip), vehicle: saline) is 161 % of control; the T/C (dose: 7.2 mg/kg/injection, schedule: Q04DX003 (ip), vehicle: saline) is 175 % of control; the T/C (dose: 8.0 mg/kg/injection, schedule: Q01DX001 (oral), vehicle: saline) is 110 % of control. Besides, the T/C is, setting by setting: (dose: 8.0 mg/kg/injection, schedule: Q01DX009 (oral), vehicle: saline) 153 % of control; (dose: 8.0 mg/kg/injection, schedule: Q01DX009 (sc), vehicle: saline) 95 % of control; (dose: 8.0 mg/kg/injection, schedule: Q04DX003 (ip), vehicle: clinical formulation) 183 % of control; (dose: 8.0 mg/kg/injection, schedule: Q04DX003 (ip), vehicle: saline) 172 % of control and 176 % of control; (dose: 9.0 mg/kg/injection, schedule: Q04DX003 (ip), vehicle: clinical formulation) 114 % of control; (dose: 9.0 mg/kg/injection, schedule: Q04DX003 (ip), vehicle: saline) 198 % of control. Moreover, the T/C was 170 % of control (dose: 10.0 mg/kg/injection, schedule: Q04DX003 (ip), vehicle: water); 166 % of control (dose: 12.0 mg/kg/injection, schedule: Q04DX002 (ip), vehicle: saline); 95 % of control (dose: 15.0 mg/kg/injection, schedule: Q04DX003 (ip), vehicle: saline); 187 % of control (dose: 15.0 mg/kg/injection, schedule: Q04DX003 (ip), vehicle: water); 153 % of control (dose: 16.0 mg/kg/injection, schedule: Q01DX001 (ip), vehicle: saline); 116 % of control (dose: 16.0 mg/kg/injection, schedule: Q01DX001 (oral), vehicle: saline). Besides, the T/C (dose: 16.0 mg/kg/injection, schedule: Q04DX003 (ip), vehicle: Klucel (hydroxypropylcellulose) (HPC)) is 154 % of control; the T/C (dose: 16.0 mg/kg/injection, schedule: Q04DX003 (ip), vehicle: saline) is 117 % of control; the T/C (dose: 32.0 mg/kg/injection, schedule: Q01DX001 (ip), vehicle: saline) is 180 % of control; the T/C (dose: 32.0 mg/kg/injection, schedule: Q01DX001 (iv), vehicle: saline) is 159 % of control.

`CC(=O)Nc1nc(CCl)cs1`: the T/C by setting is: (dose: 25.0 mg/kg/injection, schedule: Q01DX009 (ip), vehicle: Klucel (hydroxypropylcellulose) (HPC)) 100 % of control; (dose: 50.0 mg/kg/injection, schedule: Q01DX009 (ip), vehicle: Klucel (hydroxypropylcellulose) (HPC)) 102 % of control; (dose: 100.0 mg/kg/injection, schedule: Q01DX009 (ip), vehicle: Klucel (hydroxypropylcellulose) (HPC)) 103 % of control; (dose: 200.0 mg/kg/injection, schedule: Q01DX009 (ip), vehicle: Klucel (hydroxypropylcellulose) (HPC)) 110 % of control.

As for `CC(=O)Nc1ccc(C(=O)N/N=C/c2ccc(O)cc2)cc1`, the T/C is, setting by setting: under setting [1], 99 % of control; under setting [2], 102 % of control; under setting [3], 100 % of control.

On to `CNC(=O)Nc1ccn(C(=O)NC)c(=O)n1`, for which the T/C by setting is: (dose: 100.0 mg/kg/injection, schedule: Q04DX002 (ip), vehicle: Klucel (hydroxypropylcellulose) (HPC)) 114 % of control; (dose: 200.0 mg/kg/injection, schedule: Q04DX002 (ip), vehicle: Klucel (hydroxypropylcellulose) (HPC)) 120 % of control.

In the case of `Cc1cc(C(F)(F)F)nc(NNc2nc(C)cc(C(F)(F)F)n2)n1`, the T/C was 102 % of control under setting [4], 88 % of control under setting [5] and 88 % of control under setting [6].

As for `CCOC(=O)c1c(-c2ccccc2)nn(CC(N)=O)c1CO`, the T/C reads like this: (dose: 50.0 mg/kg/injection, schedule: Q01DX005 (ip), vehicle: saline with Tween-80) 100 % of control; (dose: 100.0 mg/kg/injection, schedule: Q01DX005 (ip), vehicle: saline with Tween-80) 105 % of control; (dose: 200.0 mg/kg/injection, schedule: Q01DX005 (ip), vehicle: saline with Tween-80) 103 % of control.

Take `[Cl][Sn]([Cl])([S]c1nccc2ccccc12)[S]c1nccc2ccccc12`: the T/C under setting [4] is 102 % of control, the T/C under setting [5] is 93 % of control and the T/C under setting [6] is 93 % of control.

`O=CC(O)C(O)C(O)C(O)C(O)C#CC#CC(O)C(O)C(O)C(O)C(O)C=O` (stereo not given): the T/C runs as follows: under setting [1], 100 % of control; under setting [2], 105 % of control; under setting [3], 92 % of control.

With `O=C1c2ccccc2C(=O)c2c1cc1c(c2O)OCO1`, the T/C by setting is: (dose: 60.0 mg/kg/injection, schedule: Q01DX005 (ip), vehicle: saline with Tween-80) 86 % of control; (dose: 120.0 mg/kg/injection, schedule: Q01DX005 (ip), vehicle: saline with Tween-80) 89 % of control; (dose: 240.0 mg/kg/injection, schedule: Q01DX005 (ip), vehicle: saline with Tween-80) 91 % of control.
